The subject of the test is Mouse BCR transgenic B cells. As to the kind of experiment: Antigen presentation of mouse BCR transgenic B cells (antigen-loading via MHC II). Format: cell-based. Particulars: Mouse BCR tg B cell; stimulus HEL; mean of at least four experiments; read-out: IC50 APC function. The source says: Purification of CD19^+ splenic B cells from MD4 HEL BcR Tg mice MD4 HEL BcR transgenic B10.BR (MD4 B10.BR) mice were a kind gift from Prof. Jose Moreno (Research Unit on Autoimmune Diseases, Centro Medico Nacional Siglo XXI, Mexico).
The spleens were isolated from MD4 B10.BR and non-transgenic litter control B10.BR mice after sacrificed by exposure to excess amount of isoflurane. The isolated spleens were suspended in RPMI1640 (Invitrogen, #31870), and dissociated by GentleMACS Dissociator (Miltenyi Biotec), and filtrated with Cell Strainer (BD Falcon, 70 μm mesh, #352350). […] The purity was determined via the proportion of CD19 cells in the separated fraction in FACS analysis, and was more than 95%.
Purified B cells were re-suspended in 50 μl of ice-cold FACS buffer (PBS supplemented with 0.1% azide and 0.1% BSA). […] Stained cell samples were washed with 5 ml of ice-cold FACS buffer twice, and analyzed by FACS Calibur (BD Bioscience). […]
FACS Data was analyzed, and their mean fluorescence intensity (MFI) were calculated with FlowJo software (Tree Star Inc). The IC50 values were calculated with GraphPad PRISM ver 6.0 software (GraphPad Software Inc). […]

Broadly, the IC50 is the concentration that gives 50% inhibition. On to `CCC(=O)N1CC[C@H](Nc2ncnc3c2CN(c2cnc(OC)c(C(F)(F)F)c2)CC3)C1` [Compound A, 1-{(S)-3-[6-(6-Methoxy-5-trifluoromethyl-pyridin-3-yl)-5,6,7,8-tetrahydro-pyrido[4,3-d]pyrimidin-4-ylamino]-pyrrolidin-1-yl}-propan-1-one], for which the IC50 is 0.395 µM.

(Values after US20190038628A1, “USE OF INHIBITORS OF THE ACTIVITY OR FUNCTION OF PI3K FOR THE TREATMENT OF PRIMARY SJOGREN'S SYNDROME” (Novartis AG, priority 2016, published 2019).)
